Laboratory results taken from patent US20230381192A1, “METHODS FOR CONTROLLING AND PREDICTING RECOVERY AFTER NMBA ADMINISTRATION” (Cornell University, priority 2020, published 2023).
Where two headings read alike, the source gives them in different places.

How the values were obtained:
[1] = Phase I pharmacokinetics after single IV bolus; assay type: in vivo; details: both sexes, human, plasma, iv
Protocol: (§1) (Abstract available in the final supplement of the Journal of Anesthesia and Analgesia, May 2020 (Volume 30, Issue pages 73-74), which is incorporated herein by reference. Healthy volunteers (n=34) aged 18 to 55 of either gender gave informed consent to an 1RB-approved Phase I protocol, NMB was measured by mechanomyography during sevoflurane (0.5 MAC)/N20 (70%) anesthesia. Each volunteer received a single IV bolus of RP1000,

[2] = tested on: cats; details: cited from earlier work
[3] = tested on: dogs; details: very high doses (27 and 54×ED95); cited from earlier work
[4] = tested on: monkeys; details: cited from earlier work
[5] = tested on: Healthy volunteers; assay: Phase I safety and tolerability in humans; assay type: in vivo, human
Protocol: as §1

Compound: COc1ccc(C[C@@H]2c3cc(OC)c(OC)cc3CC[N@@+]2(C)CCCOC(=O)/C=C/C(=O)OCCC[N@+]2(C)CCc3cc(OC)c(OC)cc3[C@H]2Cc2ccc(OC)c(OC)c2)cc1OC.[Cl-].[Cl-] [RP1000]
- clearance ([1]; 0.06 mg/kg, single IV bolus 0.06 mg/kg (n = 6), read-out: CL (clearance), Geometric Mean): 399 mL/min
- clearance ([1]; 0.06 mg/kg, single IV bolus 0.06 mg/kg (n = 6), read-out: CL (clearance), Mean (SD)): 409 mL/min
- Cmax ([1]; 0.06 mg/kg, single IV bolus 0.06 mg/kg (n = 6), read-out: Cmax, Geometric Mean): 2600 ng/mL
- Cmax ([1]; 0.06 mg/kg, single IV bolus 0.06 mg/kg (n = 6), read-out: Cmax, Mean): 3070 ng/mL
- Vd ([1]; 0.06 mg/kg, single IV bolus 0.06 mg/kg (n = 6), read-out: Vss (volume at steady state), Geometric Mean): 8.8 L
- Vd ([1]; 0.06 mg/kg, single IV bolus 0.06 mg/kg (n = 6), read-out: Vss (volume at steady state), Mean): 8.92 L
- half-life ([1]; 0.06 mg/kg, single IV bolus 0.06 mg/kg (n = 6), read-out: t1/2 (terminal elimination half-life), Geometric Mean): 26.3 min
- half-life ([1]; 0.06 mg/kg, single IV bolus 0.06 mg/kg (n = 6), read-out: t1/2 (terminal elimination half-life), Mean (SD)): 26 min
- AUC(0-t) ([1]; 0.08 mg/kg, single IV bolus 0.08 mg/kg (n = 6), read-out: AUClast, Geometric Mean (converted)): 248 ng·h/mL
- AUC(0-t) ([1]; 0.08 mg/kg, single IV bolus 0.08 mg/kg (n = 6), read-out: AUClast, Mean (converted)): 235 ng·h/mL
- clearance ([1]; 0.08 mg/kg, single IV bolus 0.08 mg/kg (n = 6), read-out: CL (clearance), Geometric Mean): 387 mL/min
- clearance ([1]; 0.08 mg/kg, single IV bolus 0.08 mg/kg (n = 6), read-out: CL (clearance), Mean (SD)): 390 mL/min
- Cmax ([1]; 0.08 mg/kg, single IV bolus 0.08 mg/kg (n = 6), read-out: Cmax, Geometric Mean): 3610 ng/mL
- Cmax ([1]; 0.08 mg/kg, single IV bolus 0.08 mg/kg (n = 6), read-out: Cmax, Mean): 4040 ng/mL
- Vd ([1]; 0.08 mg/kg, single IV bolus 0.08 mg/kg (n = 6), read-out: Vss (volume at steady state), Geometric Mean): 9.58 L
- Vd ([1]; 0.08 mg/kg, single IV bolus 0.08 mg/kg (n = 6), read-out: Vss (volume at steady state), Mean): 9.65 L
- half-life ([1]; 0.08 mg/kg, single IV bolus 0.08 mg/kg (n = 6), read-out: t1/2 (terminal elimination half-life), Geometric Mean): 27 min
- half-life ([1]; 0.08 mg/kg, single IV bolus 0.08 mg/kg (n = 6), read-out: t1/2 (terminal elimination half-life), Mean (SD)): 27 min
- AUC(0-t) ([1]; 0.1 mg/kg, single IV bolus 0.10 mg/kg (n = 6), read-out: AUClast, Geometric Mean (converted)): 303 ng·h/mL
- AUC(0-t) ([1]; 0.1 mg/kg, single IV bolus 0.10 mg/kg (n = 6), read-out: AUClast, Mean (converted)): 291 ng·h/mL
- clearance ([1]; 0.1 mg/kg, single IV bolus 0.10 mg/kg (n = 6), read-out: CL (clearance), Geometric Mean): 438 mL/min
- clearance ([1]; 0.1 mg/kg, single IV bolus 0.10 mg/kg (n = 6), read-out: CL (clearance), Mean (SD)): 443 mL/min
- Cmax ([1]; 0.1 mg/kg, single IV bolus 0.10 mg/kg (n = 6), read-out: Cmax, Geometric Mean): 5020 ng/mL
- Cmax ([1]; 0.1 mg/kg, single IV bolus 0.10 mg/kg (n = 6), read-out: Cmax, Mean): 5270 ng/mL
- Vd ([1]; 0.1 mg/kg, single IV bolus 0.10 mg/kg (n = 6), read-out: Vss (volume at steady state), Geometric Mean): 9.02 L
- Vd ([1]; 0.1 mg/kg, single IV bolus 0.10 mg/kg (n = 6), read-out: Vss (volume at steady state), Mean): 9.12 L
- half-life ([1]; 0.1 mg/kg, single IV bolus 0.10 mg/kg (n = 6), read-out: t1/2 (terminal elimination half-life), Geometric Mean): 23.9 min
- half-life ([1]; 0.1 mg/kg, single IV bolus 0.10 mg/kg (n = 6), read-out: t1/2 (terminal elimination half-life), Mean (SD)): 24 min
- AUC(0-t) ([1]; 0.14 mg/kg, single IV bolus 0.14 mg/kg (n = 4), read-out: AUClast, Geometric Mean (converted)): 507 ng·h/mL
- AUC(0-t) ([1]; 0.14 mg/kg, single IV bolus 0.14 mg/kg (n = 4), read-out: AUClast, Mean (converted)): 481 ng·h/mL
- clearance ([1]; 0.14 mg/kg, single IV bolus 0.14 mg/kg (n = 4), read-out: CL (clearance), Geometric Mean): 366 mL/min
- clearance ([1]; 0.14 mg/kg, single IV bolus 0.14 mg/kg (n = 4), read-out: CL (clearance), Mean (SD)): 368 mL/min
- Cmax ([1]; 0.14 mg/kg, single IV bolus 0.14 mg/kg (n = 4), read-out: Cmax, Geometric Mean): 9120 ng/mL
- Cmax ([1]; 0.14 mg/kg, single IV bolus 0.14 mg/kg (n = 4), read-out: Cmax, Mean): 10300 ng/mL
- Vd ([1]; 0.14 mg/kg, single IV bolus 0.14 mg/kg (n = 4), read-out: Vss (volume at steady state), Geometric Mean): 7.84 L
- Vd ([1]; 0.14 mg/kg, single IV bolus 0.14 mg/kg (n = 4), read-out: Vss (volume at steady state), Mean): 7.96 L
- half-life ([1]; 0.14 mg/kg, single IV bolus 0.14 mg/kg (n = 4), read-out: t1/2 (terminal elimination half-life), Geometric Mean): 24.8 min
- half-life ([1]; 0.14 mg/kg, single IV bolus 0.14 mg/kg (n = 4), read-out: t1/2 (terminal elimination half-life), Mean (SD)): 25 min
- effects on autonomic or circulatory systems [2]: no observed ill-elects on autonomic or circulatory systems
- decrease in mean arterial pressure [3]: 20%
- increase in heart rate [3]: 20%
- effects on autonomic or circulatory systems [4]: no observed ill-elects on autonomic or circulatory systems
- tolerability ([5]; healthy volunteers, 0.02 mg/kg to 0.14 mg/kg): generally well-tolerated
- cardiopulmonary side effects ([5]; humans, doses up to 0.14 mg/kg): did not result in significant cardiopulmonary side effects
- signs of histamine release ([5]; humans, doses up to 0.14 mg/kg): nor any signs of histamine release
